Read-outs that look alike come from different tables or passages of the source.
Assays:
CD69 = assay: Induction of CD69 in human whole blood; assay type: cell-based; conditions: 17 h, CD69 surface staining, 100% set to 1 uM resiquimod
Method in brief: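 Heparinized human whole blood, RPMI-diluted, incubated with TLR7 agonist (final 1 uM from 1 mM stock) for 17 h at 37 °C. CD69-PE surface staining with CD14/CD19 gating, fix/lysis, then flow cytometry; curves normalized with 1 uM resiquimod as 100%.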

human TLR7 = biological target: T1, human TLR7 (Homo sapiens, UniProt Q9NYK1); assay: Human TLR7 agonist activity reporter assay (HEK-Blue TLR7 cells, SEAP reporter); assay type: cell-based; conditions: 18 h treatment
T1 construct: host or cells: HEK-Blue TLR7 cells (engineered human embryonic kidney cells)
T1 sequence (Q9NYK1 27-1049): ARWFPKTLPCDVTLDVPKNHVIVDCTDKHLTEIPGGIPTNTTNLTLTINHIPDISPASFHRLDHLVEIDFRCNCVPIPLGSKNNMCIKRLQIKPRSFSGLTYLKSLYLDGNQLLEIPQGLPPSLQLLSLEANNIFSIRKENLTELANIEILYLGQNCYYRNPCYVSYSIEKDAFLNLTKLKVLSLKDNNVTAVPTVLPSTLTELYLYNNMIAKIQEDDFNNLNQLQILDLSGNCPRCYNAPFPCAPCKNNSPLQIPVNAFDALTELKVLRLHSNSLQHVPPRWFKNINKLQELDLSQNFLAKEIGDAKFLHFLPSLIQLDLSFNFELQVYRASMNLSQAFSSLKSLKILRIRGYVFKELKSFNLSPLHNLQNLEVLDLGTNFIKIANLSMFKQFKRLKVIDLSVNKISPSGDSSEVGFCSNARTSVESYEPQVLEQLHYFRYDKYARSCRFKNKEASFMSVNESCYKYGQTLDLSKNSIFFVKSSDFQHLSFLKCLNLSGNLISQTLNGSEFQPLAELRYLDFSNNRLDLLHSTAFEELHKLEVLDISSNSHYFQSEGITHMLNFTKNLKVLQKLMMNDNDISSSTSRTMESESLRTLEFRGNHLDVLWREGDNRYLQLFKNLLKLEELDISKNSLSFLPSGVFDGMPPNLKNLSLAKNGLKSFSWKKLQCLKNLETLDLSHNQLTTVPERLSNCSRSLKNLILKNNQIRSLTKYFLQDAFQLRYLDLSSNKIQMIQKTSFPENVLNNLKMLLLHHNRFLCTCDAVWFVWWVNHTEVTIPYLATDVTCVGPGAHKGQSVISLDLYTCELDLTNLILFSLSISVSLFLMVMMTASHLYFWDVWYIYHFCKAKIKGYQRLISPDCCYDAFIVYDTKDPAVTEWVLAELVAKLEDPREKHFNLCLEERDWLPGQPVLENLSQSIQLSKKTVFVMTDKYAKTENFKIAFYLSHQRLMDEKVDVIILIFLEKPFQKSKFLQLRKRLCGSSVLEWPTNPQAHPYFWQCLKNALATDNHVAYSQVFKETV
Method in brief: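 HEK-Blue TLR7 cells (15,000/well) treated with compound for 18 h at 37 °C, 5% CO2. Secreted SEAP measured with Quanti-Blue, 30 min, OD 620 nm. EC50 taken as concentration giving half-maximal response between baseline and maximum.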

[1] = Table A2, read-out: hWB CD69 EC50
[2] = Table A2, read-out: hTLR7 Agonism EC50
[3] = average where assay repeated, Table A1, read-out: hWB CD69 EC50
[4] = average where assay repeated, Table A1, read-out: hTLR7 Agonism EC50

EC50 (CD69; [1]) [nM] | EC50 (human TLR7; [2]) [nM] | EC50 (CD69; [3]) [nM] | EC50 (human TLR7; [4]) [nM] | Compound
77 | 204 |  |  | CCC[C@@H](CCO)Nc1nc(N)nc2cnn(Cc3cc(CN4C[C@H]5C[C@@H]4CN5CCO)c(F)cc3OC)c12 [Compound 175, (3S)-3-({5-amino-1-[(4-fluoro-5-{[(1R,4R)-5-(2-hydroxyethyl)-2,5-diazabicyclo[2.2.1]heptan-2-yl]methyl}-2-methoxyphenyl)-methyl]-1H-pyrazolo[4,3-d]pyrimidin-7-yl}amino)hexan-1-ol]
 |  | 156 | 562 | CCCCNc1nc(N)nc2cnn(Cc3cc(CNC4CC45CC5)ccc3OC)c12 (stereo not shown) [Compound 117, N7-butyl-1-({2-methoxy-5-[({spiro[2.2]pentan-1-yl}amino)methyl]phenyl}methyl)-1H-pyrazolo[4,3-d]pyrimidine-5,7-diamine]
29.8 | 167 |  |  | CCC[C@@H](CCO)Nc1nc(N)nc2cnn(Cc3cc(CNCCO)c(F)cc3OC)c12 [Compound 172, (3S)-3-({5-amino-1-[(4-fluoro-5-{[(2-hydroxyethyl)amino]methyl}-2-methoxyphenyl)methyl]-1H-pyrazolo[4,3-d]pyrimidin-7-yl}amino)hexan-1-ol]
 |  | 85.9 | 112 | CCCCNc1nc(N)nc2cnn(Cc3cc(CN4CCCN(C)CC4)ccc3OC)c12 [Compound 131, N7-butyl-1-({2-methoxy-5-[(4-methyl-1,4-diazepan-1-yl)methyl]phenyl}methyl)-1H-pyrazolo[4,3-d] pyrimidine-5,7-diamine]
 |  | 288 | 548 | CCCCNc1nc(N)nc2cnn(Cc3cc(CNC4CCCC4)ccc3OC)c12 [Compound 120]
41.4 | 96.1 |  |  | CCC[C@@H](CCO)Nc1nc(N)nc2cnn(Cc3nc(CO)ccc3OC)c12 [Compound 174, (3S)-3-[(5-amino-1-{[6-(hydroxyl-methyl)-3-methoxypyridin-2-yl]methyl}-1H-pyrazolo[4,3-d]pyrimidin-7-yl)amino]hexan-1-ol]
23.2 | 40 |  |  | CCC[C@@H](CCO)Nc1nc(N)nc2cnn(Cc3cc(CNCCS(C)(=O)=O)c(F)cc3OC)c12 [Compound 173, (3S)-3-({5-amino-1-[(4-fluoro-5-{[(2-methanesulfonylethyl)amino]methyl}-2-methoxyphenyl)methyl]-1H-pyrazolo[4,3-d]pyrimidin-7-yl}amino)hexan-1-ol]
 |  | 205 | 335 | CCCCNc1nc(N)nc2cnn(Cc3cc(CNC4CC(O)C4)ccc3OC)c12 (stereo not shown) [Compound 116, (1r,3r)-3-{[(3-{[5-amino-7-(butylamino)-1H-pyrazolo-[4,3-d]pyrimidin-1-yl]methyl}-4-methoxyphenyl)-methyl]amino}cyclobutan-1-ol]
 |  | 129 | 150 | CCC[C@@H](CCO)Nc1nc(N)nc2cnn(Cc3cc(CN4CCNCC4)ccc3OC)c12 [Compound 155, (3S)-3-{[5-amino-1-({2-methoxy-5-[(piperazin-1-yl)-methyl]phenyl}methyl)-1H-pyrazolo[4,3-d]pyrimidin-7-yl]amino}hexan-1-ol]
 |  | 86.3 | 190 | CCCCNc1nc(N)nc2cnn(Cc3cc(CN4CC5(COC5)C4)ccc3OC)c12 [Compound 124, N7-butyl-1-{[2-methoxy-5-({2-oxa-6-azaspiro-[3.3]heptan-6-yl}-methyl)phenyl]methyl}-1H-pyrazolo[4,3-d]pyrimidine-5,7-diamine]
 |  | 19.1 | 51.1 | CCCCNc1nc(N)nc2cnn(Cc3cc(CNC(=O)CN(C)C)ccc3OC)c12 [Compound 136, N-[(3-{[5-amino-7-(butyl-amino)-1H-pyrazolo[4,3-d]pyrimidin-1-yl]methyl}-4-methoxyphenyl)methyl]-2-(dimethylamino)acetamide]
 |  | 144 | 280 | CCC[C@@H](CCO)Nc1nc(N)nc2cnn(Cc3cc(C(=O)N[C@@H]4CCN(C)C4)ccc3OC)c12 [Compound 154, 3-[(5-amino-7-{[(3S)-1-hydroxyhexan-3-yl]amino}-1H-pyrazolo[4,3-d]pyrimidin-1-yl)methyl]-4-methoxy-N-[(3R)-1-methylpyrrolidin-3-yl] benzamide]
 |  | 21.7 | 48.5 | CCC[C@@H](CCO)Nc1nc(N)nc2c(C)nn(Cc3cc(CN4CCN(C)CC4)ccc3OC)c12 [Compound 164, (3S)-3-{[5-amino-1-({2-methoxy-5-[(4-methylpiperazin-1-yl)methyl]phenyl}methyl)-3-methyl-1H-pyrazolo[4,3-d]pyrimidin-7-yl]amino}hexan-1-ol]
 |  | 516 | 49.9 | CCCCNc1nc(N)nc2cnn(Cc3cc(CN4CCN(C5CCC5)CC4)ccc3OC)c12 [Compound 130, N7-butyl-1-({5-[(4-cyclobutylpiperazin-1-yl)methyl]-2-methoxy-phenyl}methyl)-1H-pyrazolo[4,3-d]pyrimidine-5,7-diamine]
 |  | 298 | 387 | COc1ccc(CNC2CCOCC2)cc1Cn1ncc2nc(N)nc(NCC3CC4(CC4)C3)c21 [Compound 150, 1-[(2-methoxy-5-{[(oxan-4-yl)amino]methyl}phenyl)-methyl]-N7-({spiro[2.3]-hexan-5-yl}methyl)-1H-pyrazolo[4,3-d]pyrimidine-5,7-diamine]
 |  | 335 | 423 | CCCCNc1nc(N)nc2cnn(Cc3cc(CN4CC5CC4CN5)ccc3OC)c12 (stereo not shown) [Compound 118, N7-butyl-1-{[5-({2,5-diaza-bicyclo[2.2.1]heptan-2-yl}methyl)-2-methoxy-phenyl]methyl}-1H-pyrazolo[4,3-d]pyrimidine-5,7-diamine]
 |  | 151 | 740 | COc1ccc(CN2CC(OC)C2)cc1Cn1ncc2nc(N)nc(NCC[C@H](O)C3CC3)c21 [Compound 160, (1S)-3-{[5-amino-1-({2-methoxy-5-[(3-methoxy-azetidin-1-yl)methyl]phenyl}-methyl)-1H-pyrazolo[4,3-d]pyrimidin-7-yl]amino}-1-cyclopropylpropan-1-ol]
 |  | 56.9 | 116 | CCCCNc1nc(N)nc2cnn(Cc3cc(CNC4CC4)ccc3OC)c12 [Compound 121]
 |  | 485 | 2250 | 4-[3-({5-amino-7-[({spiro- [2.3]hexan-5-yl}methyl)- amino]-1H-pyrazolo[4,3- d]pyrimidin-1-yl}methyl)-4- methoxybenzoyl]piperazin- 2-one [Compound 153]
5.7 | 57.2 |  |  | CCC[C@@H](CCO)Nc1nc(N)nc2cnn(Cc3cc(CN4CC[C@H](O)C4)c(F)cc3OC)c12 [Compound 176, (3S)-1-({5-[(5-amino-7-{[(3S)-1-hydroxyhexan-3-yl]amino}-1H-pyrazolo[4,3-d]pyrimidin-1-yl)methyl]-2-fluoro-4-methoxyphenyl}methyl) pyrrolidin-3-ol]
 |  | 159 | 467 | COc1ccc(C(=O)NC2CCN(C)CC2)cc1Cn1ncc2nc(N)nc(NCC3CC4(CC4)C3)c21 [Compound 152, 3-({5-amino-7-[({spiro-[2.3]hexan-5-yl}methyl)-amino]-1H-pyrazolo[4,3-d]pyrimidin-1-yl}methyl)-4-methoxy-N-(1-methylpiperidin-4-yl)benzamide]
 |  | 29.5 | 94.2 | N7-butyl-1-[(2-methoxy-5- {[(1S,4S)-5-methyl-2,5- diazabicyclo[2.2.1]heptan-2- yl]methyl}phenyl)methyl]- 1H-pyrazolo[4,3-d] pyrimidine-5,7-diamine [Compound 142]
140 | 437 |  |  | CCC[C@@H](CCO)Nc1nc(N)nc2cnn(Cc3cc(CN4C[C@H]5C[C@@H]4CN5C)c(F)cc3OC)c12 [Compound 171, (3S)-3-({5-amino-1-[(4-fluoro-2-methoxy-5-{[(1R,4R)-5-methyl-2,5-diazabicyclo[2.2.1]heptan-2-yl]methyl}phenyl)methyl]-1H-pyrazolo[4,3-d]pyrimidin-7-yl}amino)hexan-1-ol]

From US20230118688A1, “1H-PYRAZOLO[4,3-d]PYRIMIDINE COMPOUNDS AS TOLL-LIKE RECEPTOR 7 (TLR7) AGONISTS” (BRISTOL-MYERS SQUIBB COMPANY, priority 2020, published 2023)
